Test results as given in PubChem BioAssay AID1253 (Columbia University Molecular Screening Center, 2008).
Active and inactive are the calls of the source.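 How the source made its calls: active means IC50 under 10 µM in the follow-up dose response; inactive means IC50 10 µM or more, or under 40% single-dose inhibition.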

target: Tyrosine-protein phosphatase non-receptor type 22 (Homo sapiens) (UniProt Q9Y2R2); assay: LYP phosphatase inhibitors, confirmation, biochemical, DiFMUP fluorescence, retest and dose response (AID 1253); settings: recombinant LYP
Sequence (Q9Y2R2 whole entry, looked up): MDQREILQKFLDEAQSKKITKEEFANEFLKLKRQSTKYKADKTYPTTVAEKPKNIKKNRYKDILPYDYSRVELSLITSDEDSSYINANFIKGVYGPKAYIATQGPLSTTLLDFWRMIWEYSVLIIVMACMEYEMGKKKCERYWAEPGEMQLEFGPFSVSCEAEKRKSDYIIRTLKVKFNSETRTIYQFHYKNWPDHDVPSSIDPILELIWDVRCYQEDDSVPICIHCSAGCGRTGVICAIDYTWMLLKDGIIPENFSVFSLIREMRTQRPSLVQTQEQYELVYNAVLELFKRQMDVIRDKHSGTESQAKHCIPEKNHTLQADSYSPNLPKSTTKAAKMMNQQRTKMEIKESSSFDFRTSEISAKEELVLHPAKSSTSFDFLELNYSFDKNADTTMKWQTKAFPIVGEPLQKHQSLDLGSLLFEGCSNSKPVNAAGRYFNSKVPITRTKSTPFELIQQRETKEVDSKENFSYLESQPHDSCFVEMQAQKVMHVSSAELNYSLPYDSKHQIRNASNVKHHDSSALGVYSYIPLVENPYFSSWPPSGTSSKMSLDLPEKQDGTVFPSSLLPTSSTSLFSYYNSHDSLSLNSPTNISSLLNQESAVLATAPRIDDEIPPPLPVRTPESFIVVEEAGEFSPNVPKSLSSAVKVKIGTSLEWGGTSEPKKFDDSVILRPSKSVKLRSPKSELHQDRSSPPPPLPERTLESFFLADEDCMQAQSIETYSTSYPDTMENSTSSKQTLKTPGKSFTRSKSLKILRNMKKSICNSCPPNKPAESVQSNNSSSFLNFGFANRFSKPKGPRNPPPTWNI

| SMILES | IC50 |
| --- | --- |
| COc1cccc(OC)c1-c1nn2c(-c3cc(-c4ccccc4)n[nH]3)nnc2s1 | 4.71 µM |
| CC(C)C(C(=O)O)N1C(=O)/C(=C/C=C/c2ccco2)SC1=S (configuration not stated) | 2.94 µM |
| Cn1nc(-c2ccc(Cl)cc2)nc2c(=O)n(C)c(=O)nc1-2 | > 10 µM (inactive) |
| O=C(O)CCCN1C(=O)/C(=C/c2ccc(-c3nc4ccccc4s3)o2)SC1=S | 1.13 µM |
| CC(C(=O)O)N1C(=O)/C(=C/C=C/c2ccco2)SC1=S (configuration not stated) | 3.7 µM |

same assay, conditions: recombinant LYP, at 10 µM, stronger effect = higher value

| SMILES | inhibition |
| --- | --- |
| Cc1ccc(C)c(OCC(=O)N/N=C/c2c(C)nn(-c3ccccc3)c2Cl)c1 | inactive |
| Cc1ccc(C(=O)n2nc(-c3ccco3)nc2N)cc1 | inactive |
| O=C1NC(=O)C(=Cc2cn(CCOc3ccc4c(c3)OCO4)c3ccccc23)C(=O)N1 | inactive |
| COc1ccc(C2C(C#N)=C(N)N(c3sc4c(c3C#N)CCCC4)C3=C2C(=O)CC(C)(C)C3)cc1OC (configuration not stated) | inactive |
| CCOC(=O)c1c(-n2c(C)cc(C=C3C(=O)NC(=S)NC3=O)c2C)sc2c1CCCC2 | inactive |
| O=C(CSc1nc2ccc(S(=O)(=O)N3CCOCC3)cc2[nH]1)N1CCOCC1 | inactive |
| CC(C)CNc1nnnc2c1sc1nc(N3CCOCC3)c3c(c12)CC(C)(C)SC3 | inactive |
| COc1cccc(/C=N/NC(=O)c2ccc(-c3ccccc3)cc2)c1O | inactive |
| CCOC(=O)c1c2ccc(OCC(=O)N/N=C/c3ccc(C)cc3)cc2n2ccccc12 | inactive |
| Cc1cccc(N(C(=O)c2ccc(Cl)cc2)C2CS(=O)(=O)CC2OC(=O)c2ccc(Cl)cc2)c1 (configuration not stated) | inactive |
| Cc1ccc(NC(=O)CN2C(=O)S/C(=C\c3ccc(-c4cccc(C(=O)O)c4C)o3)C2=O)cc1 | inactive |
| CC(C)C(CCNC(=O)CC(Cc1ccccc1)c1ccco1)c1ccco1 (configuration not stated) | inactive |
| COc1ccc(NC(=O)C2CCCO2)cc1Cl (configuration not stated) | inactive |
| CCCNc1cc(=O)n(C)c(=O)n1C | inactive |
| Cc1cc([N+](=O)[O-])nn1CC(=O)NNC(=S)Nc1ccc([N+](=O)[O-])cc1 | inactive |
| CC(=O)Nc1ccc(NC(=O)c2ccccc2CC[N+](=O)[O-])cc1 | inactive |
| COc1cccc(-c2nnc(NC(=O)c3ccc(S(=O)(=O)N(CC(C)C)CC(C)C)cc3)o2)c1 | inactive |
| COc1c(N2CCN(C(=S)NCc3ccccc3)C(C)C2)c(F)cc2c(=O)c(C(=O)O)cn(C3CC3)c12 (configuration not stated) | inactive |
| O=C(Cc1cnn(-c2ccccc2)c1)c1ccc(O)c(O)c1O | inactive |
| C(=C/c1ccnc2nc(SC/C=C/c3ccccc3)nn12)/c1ccccc1 | inactive |
| CC(OC(=O)c1ccco1)C(=O)NC1CCCCC1 (configuration not stated) | inactive |

| SMILES | inhibition |
| --- | --- |
| COc1ccc(NC(=O)CSc2ccc3c4c(cccc24)C(=O)c2ccccc2-3)cc1 | inactive |
| COc1ccc(S(=O)(=O)N2CC3CCCN3c3cc(C(F)(F)F)ccc32)cc1 (configuration not stated) | inactive |
| O=C(N/N=C/c1ccc2ccccc2c1)c1ccc(COc2ccc3c(c2)CCC3)o1 | inactive |
| CCCCN(C(=O)CSc1nnc(Nc2ccc(C)c(C)c2)s1)c1c(N)n(Cc2ccccc2)c(=O)[nH]c1=O | inactive |
| S=c1[nH]nc(COc2ccccc2)n1/N=C/C(Cl)=C/c1ccccc1 | inactive |
| CCCC(=O)Nc1ccc2c(c1)nc(CCNC(=O)c1ccccc1)n2C | inactive |
| O=C(c1ccc(Cl)cc1)c1cnc(-c2ccc(Cl)cc2)s1 | inactive |
| CC(C)(C)c1cc(NCCCn2ccnc2)n2ncc(-c3ccc(Cl)cc3)c2n1 | inactive |
| CCOc1ccc(-c2csc(N)c2C(=O)OC)cc1 | inactive |
| Cc1ccc(CNC(=O)c2ccccc2N)cc1 | inactive |
| Cc1nnc(SCC(=O)N/N=C/c2cn(-c3ccccc3)nc2-c2ccccc2)n1-c1ccccc1 | inactive |
| O=C(NC(C(=O)N/N=C/c1ccccc1)c1n[nH]c(=O)c2ccccc12)c1ccccc1 (configuration not stated) | inactive |
| CCOC(=O)c1ccc(NC(=O)CC2NCCNC2=O)cc1 (configuration not stated) | inactive |
| Cc1nc(NC(=O)CC(C)C)sc1-c1csc(Nc2ccc(Cl)cc2)n1 | inactive |
| CCOC(=O)Cc1csc(NC(=S)NC(=O)c2ccc(Cl)cc2)n1 | inactive |
| O=C(Cn1c2ccccc2c(=O)c2ccccc21)N/N=C/c1cc([N+](=O)[O-])ccc1N1CCCCCC1 | inactive |
| O=C(Nc1ccc2oc(-c3ccc(Cl)c(Cl)c3)nc2c1)c1ncn[nH]1 | inactive |
| Cc1ccc2oc3nc(C)c(C(=O)Nc4cccc(C(F)(F)F)c4)cc3c(=O)c2c1 | inactive |
| Cc1ccc(-c2nn(CC(=O)NCc3cc(-c4nn(C)c(=O)c5ccccc45)ccc3C)c(=O)c3ccccc23)cc1 | inactive |
| CCNC(=S)NNC(=O)c1cccn(Cc2ccc(Cl)cc2Cl)c1=O | inactive |
| C=CCNC(=S)NNC(=O)c1cccn(Cc2ccc(Cl)cc2)c1=O | inactive |

| SMILES | inhibition |
| --- | --- |
| CNC(=S)NNC(=O)c1cccn(Cc2ccc(Cl)c(Cl)c2)c1=O | inactive |
| O=C(Nc1nc(-c2ccccn2)cs1)c1ncc(Cl)c(Cl)c1Cl | inactive |
| CCC(C)n1c(C)nc2c(c1=O)c1nc3ccccc3nc1n2CCC1=CCCCC1 (configuration not stated) | inactive |
| CCOC(=O)c1ccc(NC(=O)CSc2nc(NC(=O)c3ccccc3)c3c(C)c(C)oc3n2)cc1 | inactive |
| COCc1cc(C)nc(Nc2ccccc2C)c1C#N | inactive |
| CCOC(=O)c1cn(-c2nc(-c3ccc(Cl)c(Cl)c3)cs2)c2c(F)c(N3CCOCC3)c(F)cc2c1=O | inactive |
| CC(/C=N/n1c(C2CCCCC2)n[nH]c1=S)=C\c1ccccc1 | inactive |
| Cc1c(CCOC(=O)C2C3CC4CC(C3)CC2C4)sc[n+]1CC(=O)c1ccc(Br)cc1 (configuration not stated) | inactive |
| COc1ccc2cc3cc(C(=O)N4CCN(Cc5ccc6c(c5)OCO6)CC4)oc3nc2c1 | inactive |
| COc1ccc(C(=O)c2sc3nc(-c4ccccc4)ccc3c2N)cc1OC | inactive |
| C=CCNC(=S)NNC(=O)c1cccn(Cc2cccc(Cl)c2)c1=O | inactive |
| COc1ccc(C2C(=O)N(C3CCCCC3)CC(=O)N2C2CCCCC2)cc1 (configuration not stated) | inactive |
| Cc1nnc(NC(=O)Nc2ccc(Cl)c(Cl)c2)s1 | inactive |
| CSc1ccc(/C=N\NC(=O)COc2ccc(Cl)cc2Br)cc1 | inactive |
| COc1ccccc1/C=C\C=N\n1c(C2CCCCC2)n[nH]c1=S | inactive |
| N#CC(c1cccc(C(F)(F)F)c1)(c1ncc(C(F)(F)F)cc1Cl)N1CCOCC1 (configuration not stated) | inactive |
| Cc1ccc(CSC2=Nc3ccccc3C3=NC(CC(=O)NCc4ccco4)C(=O)N23)cc1 (configuration not stated) | inactive |
| Clc1ccc(C2=C3CCCCn4c(-c5ccccc5)c[n+](c43)C2)cc1 | inactive |
| O=C(Cn1cnc2ccccc21)Nc1ccc(C(=O)O)cc1 | inactive |
| Cc1cc(-c2csc(N)n2)c(C)n1CCC(C)C | inactive |
| CCN(CC)CCCNC(=O)c1c(O)c2ccccc2n(Cc2ccccc2)c1=O | inactive |

| SMILES | inhibition |
| --- | --- |
| Nc1nnnn1/N=C/c1ccccc1C(F)(F)F | inactive |
| O=C(Nc1ccc(N2CCCCC2)c(Cl)c1)c1ccc2c(c1)OCCO2 | inactive |
| CCOc1ccc(N(CC(=O)Nc2ccccc2C(=O)NCc2ccco2)S(C)(=O)=O)cc1 | inactive |
| CCN(CC(=O)NC(=O)NC1CCCCC1)Cc1nc2ccccc2c(=O)[nH]1 | inactive |
| Cc1cc(C)n2c(SCC(=O)N3CCN(S(=O)(=O)c4ccc(Cl)cc4)CC3)nnc2n1 | inactive |
| CCOC(=O)CC(=O)CSc1nc2c(C)c(C)ccc2cc1C | inactive |
| Cc1ccccc1Cn1ccc(NC(=O)CCSc2nc(-c3ccco3)cc(C(F)(F)F)n2)n1 | inactive |
| c1ccc(-c2cc(-c3nnc4n3N=C(c3ccc5ccccc5c3)CS4)[nH]n2)cc1 | inactive |
| CCOc1ccc(N=C2NC(=O)S/C2=C\c2ccc(Cl)cc2)cc1 | inactive |
| Cc1ccc(Nc2cc(C)nn2-c2nc(C)cc(=O)[nH]2)cc1 | inactive |
| O=C1C2C(C(=O)N1CCc1ccccc1)C1C=CC2C12CC2 (configuration not stated) | inactive |
| CCCSc1nc(C)c(-c2csc(C(C#N)=C3CCCC3)n2)cc1C#N | inactive |
| CCCn1c(Nc2ccc(Cl)cc2)nc2ccccc21 | inactive |
| COc1ccc2cc(CN(Cc3ccco3)C(c3nnnn3C3CCCCC3)C(C)C)c(=O)[nH]c2c1 (configuration not stated) | inactive |
| Nn1cnnc1N/N=C/c1cc(Br)cc(Br)c1O | inactive |
| O=S(=O)(Nc1nc(-c2sccc2Cl)cs1)c1cc(Cl)ccc1Cl | inactive |
| COc1ccc2nc(SCc3cnc(C)nc3N)[nH]c2c1 | inactive |
| Cc1ccc(-c2nnc(CSc3nnc(COc4cccc5ccccc45)n3-c3ccccc3)o2)cc1 | inactive |
| Cc1cc2c(cc1C)N(C(=O)CSC1=NCCS1)C(C)(C)c1ssc(=S)c1-2 | inactive |
